Data from ChEMBL document CHEMBL5550184, “Structure-activity relationships of middle-size cyclic peptides, KRAS inhibitors derived from an mRNA display” (Bioorg Med Chem, 2024).
Positions of bridges follow the written chain, without caps; N, C: chain ends. Non-standard residues stand in square brackets, D forms with d. Residues, ends and D or L forms follow the SMILES beside them. *: point of attachment. hPhe(3-Cl-4-CF3) = N[C@@H](CCc1ccc(C(F)(F)F)c(Cl)c1)C(=O)O; NMeGly(cPent) = CN[C@H](C(=O)O)C1CCCC1; NMeGly(cBu) = CN[C@H](C(=O)O)C1CCC1; NMeCha = CN[C@@H](CC1CCCCC1)C(=O)O; NMeGly(cPr) = CN[C@H](C(=O)O)C1CC1; NEtLeu = CCN[C@@H](CC(C)C)C(=O)O; NMeChg = CN[C@H](C(=O)O)C1CCCCC1; NMeD = CN[C@@H](CC(=O)O)C(=O)O; NMeL = CN[C@@H](CC(C)C)C(=O)O; NMeV = CN[C@H](C(=O)O)C(C)C; NMeA = CN[C@@H](C)C(=O)O; Piperidide = C1CCN(*)CC1; Ac5c = NC1(C(=O)O)CCCC1; Aze = O=C(O)[C@@H]1CCN1; Sar = CNCC(=O)O

Experiments:
GTPase KRas = GTPase KRas (Homo sapiens, UniProt P01116, G12D); experiment: Binding affinity to biotinylated KRAS G12D mutant (unknown origin) incubated for 120 mins by SPR analysis
Sequence of GTPase KRas (P01116 whole entry G12D): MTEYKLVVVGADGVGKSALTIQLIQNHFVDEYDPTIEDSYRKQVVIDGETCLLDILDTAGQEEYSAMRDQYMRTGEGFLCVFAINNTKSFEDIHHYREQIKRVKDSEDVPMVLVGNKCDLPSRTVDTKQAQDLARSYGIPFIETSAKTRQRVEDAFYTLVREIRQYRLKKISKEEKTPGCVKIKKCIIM

[1] = Inhibition of biotin-tagged KRAS G12D mutant (unknown origin) to recombinant His-tagged SOS1 (unknown origin) protein-protein interaction incubated for 120 mins by AlphaLISA method; design: species or system Homo sapiens
ASPC1 = experiment: Cytotoxicity against human AsPC1 cells assessed as reduction in cell viability incubated for 7 days by CellTiterGlo Luminescent Cell Viability Assay; assay type: functional, cell-based; conditions: ASPC1, 168 h
[2] = test system: GTPase KRas (Homo sapiens), P01116 [G12D]; experiment: Binding affinity to biotinylated KRAS G12D mutant (unknown origin) assessed as Koff incubated for 120 mins by SPR analysis
Sequence of GTPase KRas (Homo sapiens), P01116 [G12D] (P01116 whole entry G12D, looked up): as the sequence (P01116 whole entry G12D) above

[3] = test system: GTPase KRas (Homo sapiens), P01116 [G12D]; experiment: Binding affinity to biotinylated KRAS G12D mutant (unknown origin) assessed as Kon incubated for 120 mins by SPR analysis
[4] = Apparent permeability in human Caco-2 cells incubated for 180 mins by LC-MS/MS method; assay type: ADME, cell-based

| Kd (GTPase KRas) [nM] | IC50 [1] [nM] | K [2] | K [3] | Papp at 3 h [4] [×10⁻⁶ cm/s] | SMILES | IC50 (ASPC1) [nM] |
| --- | --- | --- | --- | --- | --- | --- |
| 1.1 | < 2 | 2.3 10^-4/s | 2.1 10^5/Ms | 0.29 | CC[C@H](C)[C@@H]1NC(=O)[C@H](CC(C)C)N(CC)C(=O)C[C@@H](C(=O)N2CCCCC2)N(C)C(=O)[C@H](C2CCCCC2)N(C)C(=O)C2(CCCC2)NC(=O)[C@@H]2CCCN2C(=O)[C@H](CCc2ccc(C(F)(F)F)c(Cl)c2)NC(=O)CN(C)C(=O)[C@H](CC2CCCCC2)N(C)C(=O)CN(C)C(=O)CN(C)C1=O ([NEtLeu]I[Sar][Sar][NMeCha][Sar][hPhe(3-Cl-4-CF3)]P[Ac5c][NMeChg][NMeD]-Piperidide; lactam N-11) | 73 |
| 0.14 | < 2 | 1.7 10^-4/s | 1.2 10^6/Ms | 0.56 | CC[C@H](C)[C@@H]1NC(=O)[C@H](C)N(C)C(=O)C[C@@H](C(=O)N2CCCCC2)N(C)C(=O)[C@H](C2CCCCC2)N(C)C(=O)C2(CCCC2)NC(=O)[C@@H]2CCCN2C(=O)[C@H](CCc2ccc(C(F)(F)F)c(Cl)c2)NC(=O)CN(C)C(=O)[C@H](CC2CCCCC2)N(C)C(=O)CN(C)C(=O)CN(C)C1=O ([NMeA]I[Sar][Sar][NMeCha][Sar][hPhe(3-Cl-4-CF3)]P[Ac5c][NMeChg][NMeD]-Piperidide; lactam N-11) | 91 |
|  | 7.8 |  |  | 0.37 | CC[C@H](C)[C@@H]1NC(=O)[C@H](C2CCCCC2)N(C)C(=O)C[C@@H](C(=O)N2CCCCC2)N(C)C(=O)[C@H](C(C)C)N(C)C(=O)C2(CCCC2)NC(=O)[C@@H]2CCCN2C(=O)[C@H](CCc2ccc(C(F)(F)F)c(Cl)c2)NC(=O)CN(C)C(=O)[C@H](CC2CCCCC2)N(C)C(=O)CN(C)C(=O)CN(C)C1=O ([NMeChg]I[Sar][Sar][NMeCha][Sar][hPhe(3-Cl-4-CF3)]P[Ac5c][NMeV][NMeD]-Piperidide; lactam N-11) | 650 |
|  | 2.8 |  |  | 0.91 | CC[C@H](C)[C@@H]1NC(=O)[C@H](C2CCC2)N(C)C(=O)C[C@@H](C(=O)N2CCCCC2)N(C)C(=O)[C@H](C(C)C)N(C)C(=O)C2(CCCC2)NC(=O)[C@@H]2CCCN2C(=O)[C@H](CCc2ccc(C(F)(F)F)c(Cl)c2)NC(=O)CN(C)C(=O)[C@H](CC2CCCCC2)N(C)C(=O)CN(C)C(=O)CN(C)C1=O ([NMeGly(cBu)]I[Sar][Sar][NMeCha][Sar][hPhe(3-Cl-4-CF3)]P[Ac5c][NMeV][NMeD]-Piperidide; lactam N-11) | 130 |
|  | 4.3 |  |  | 0.75 | CC[C@H](C)[C@@H]1NC(=O)[C@H](C2CCCC2)N(C)C(=O)C[C@@H](C(=O)N2CCCCC2)N(C)C(=O)[C@H](C(C)C)N(C)C(=O)C2(CCCC2)NC(=O)[C@@H]2CCCN2C(=O)[C@H](CCc2ccc(C(F)(F)F)c(Cl)c2)NC(=O)CN(C)C(=O)[C@H](CC2CCCCC2)N(C)C(=O)CN(C)C(=O)CN(C)C1=O ([NMeGly(cPent)]I[Sar][Sar][NMeCha][Sar][hPhe(3-Cl-4-CF3)]P[Ac5c][NMeV][NMeD]-Piperidide; lactam N-11) | 210 |
|  | 8.5 |  |  | 0.46 | CC[C@H](C)[C@@H]1NC(=O)[C@H](C2CC2)N(C)C(=O)C[C@@H](C(=O)N2CCCCC2)N(C)C(=O)[C@H](C(C)C)N(C)C(=O)C2(CCCC2)NC(=O)[C@@H]2CCCN2C(=O)[C@H](CCc2ccc(C(F)(F)F)c(Cl)c2)NC(=O)CN(C)C(=O)[C@H](CC2CCCCC2)N(C)C(=O)CN(C)C(=O)CN(C)C1=O ([NMeGly(cPr)]I[Sar][Sar][NMeCha][Sar][hPhe(3-Cl-4-CF3)]P[Ac5c][NMeV][NMeD]-Piperidide; lactam N-11) | 720 |
|  | > 1000 |  |  | 0.97 | CC[C@H](C)[C@@H]1NC(=O)[C@H](CC(C)C)N(C)C(=O)C[C@@H](C(=O)N2CCCCC2)N(C)C(=O)[C@H](C)N(C)C(=O)C2(CCCC2)NC(=O)[C@@H]2CCCN2C(=O)[C@H](CCc2ccc(C(F)(F)F)c(Cl)c2)NC(=O)CN(C)C(=O)[C@H](CC2CCCCC2)N(C)C(=O)[C@@H]2CCN2C(=O)[C@H](C)N(C)C1=O ([NMeL]I[NMeA][Aze][NMeCha][Sar][hPhe(3-Cl-4-CF3)]P[Ac5c][NMeA][NMeD]-Piperidide; lactam N-11) | 5200 |
|  | < 2 |  |  | 0.97 | CC[C@H](C)[C@@H]1NC(=O)[C@H](CC(C)C)N(C)C(=O)C[C@@H](C(=O)N2CCCCC2)N(C)C(=O)[C@H](C2CCCCC2)N(C)C(=O)C2(CCCC2)NC(=O)[C@@H]2CCCN2C(=O)[C@H](CCc2ccc(C(F)(F)F)c(Cl)c2)NC(=O)CN(C)C(=O)[C@H](CC2CCCCC2)N(C)C(=O)[C@@H]2CCN2C(=O)[C@H](C)N(C)C1=O ([NMeL]I[NMeA][Aze][NMeCha][Sar][hPhe(3-Cl-4-CF3)]P[Ac5c][NMeChg][NMeD]-Piperidide; lactam N-11) | 140 |
